Reference: patent US20250332143A1, “COMPOSITION COMPRISING ALOX5 INHIBITOR FOR PREVENTING OR TREATING SARCOPENIA” (PLUTO Inc., priority 2022, published 2025)

Test system: aged C57BL/6J mice
Assay: Sarcopenia model using aging mice
Format: in vivo, mouse
Description: Male C57BL/6J mice over 21 months of age were divided into 2 groups of 5 and treated with drugs as follows: 1) 0.5% carboxyl methyl with 6.73% DMSO (Vehicle group) and 2) 50 mg/kg of malotilate (at a concentration of 50 mg/kg, 0.5% carboxyl methyl with 6.73% DMSO) (Malotilate group). Those were administered orally daily for 4 weeks. Afterwards, the function and condition of the muscles were analyzed.
Grip strength was measured with the BIO-GS3 grip strength test meter (Bioseb, FL, USA). Grip strength was measured by placing the mouse on a grid and gently pulling it back with all four paws until the mouse fell off the grid. The trials were conducted with a time interval of 30 seconds, and the largest value among the three trials was selected as the representative muscle strength.
Muscle fatigue was measured from two different models using Rotarod (Ugo Basile, Italy). One is a constant speed model that measures how long movement can be continued on a cylinder rotating at a constant speed, and the other model is an acceleration model that measures how fast the mouse can continue movement when the speed of the cylinder increases at regular intervals. Mice were trained to adapt from 5 rpm to 15 rpm one day before measurement in the above two models.
Before sacrifice, mice were anesthetized by intraperitoneally administering 22 mg/kg Ketamine (Yuhan, Republic of Korea) and 10 mg/kg xylazine (Bayer, Republic of Korea) by IP injection, and then samples were collected. Quadriceps, gastrocnemius, tibialis anterior and soleus muscles were sampled and their weights were measured. The muscles sampled for immunohistostaining were cultured overnight at 4° C. with 4% paraformaldehyde, fixed, embedded in paraffin solution, and stored at −80° C. Cutting and hematoxylin & eosin staining were carried out at the Animal Research Facility of the Gwangju Institute of Science and Technology, Republic of Korea. Hematoxylin & eosin staining was performed using the kit (Merck, Germany). The cross-sectional area of muscle fibers was measured using ImageJ 1.48 software (National Institutes of Health, USA).
Immunohistochemical staining was performed using myosin heavy chain types 2A and 2B (DSHB, IA, USA) and anti-laminin antibody (Abcam, Cambirdge, UK). Counterstain was stained with 1 μM DAPI solution. The cross-sectional area of muscle fibers was visualized using LEICA DM 2500 (Leica, Germany) and then measured using ImageJ 1.48 software (National Institutes of Health, USA).

[1] = aged mice, 50 mg/kg orally daily, 4 weeks

## CC(C)OC(=O)C(C(=O)OC(C)C)=C1SC=CS1 [malotilate, Malotilate]
[1]
  grip strength: significantly increased
  mean latency to fall: increased in malotilate-treated mice but did not reach statistical significance
  quadriceps muscle mass: significantly increased
  soleus muscle mass: significantly increased
Aged mice, immunohistology
  CSA of fast twitch fibers (types IIA and IIB): preserves
Aged mice, quadriceps
  average muscle fiber cross-sectional area: increased
  proportion of large myofibers (>5000 μm^2): much larger proportion
Animal model of sarcopenia due to aging
  skeletal muscle atrophy: inhibited
